Measured values: paper PMC6199744, “Development of Chemical Proteomics for the Folateome and Analysis of the Kinetoplastid Folateome” (ACS Infectious Diseases, 2018)
Read-outs that look alike come from different tables or passages of the source.

How the values were obtained:
Format in all cases: binding
[1] = target: T1, HeLa cell extract proteins (Homo sapiens, UniProt Q13200)
T1 construct: endogenous in cells; host or cells: HeLa cell extract

[2] = target: T2, HeLa cell extract proteins (Homo sapiens, UniProt P14625)
T2 construct: endogenous in cells; host or cells: HeLa cell extract
T2 sequence (P14625 22-803): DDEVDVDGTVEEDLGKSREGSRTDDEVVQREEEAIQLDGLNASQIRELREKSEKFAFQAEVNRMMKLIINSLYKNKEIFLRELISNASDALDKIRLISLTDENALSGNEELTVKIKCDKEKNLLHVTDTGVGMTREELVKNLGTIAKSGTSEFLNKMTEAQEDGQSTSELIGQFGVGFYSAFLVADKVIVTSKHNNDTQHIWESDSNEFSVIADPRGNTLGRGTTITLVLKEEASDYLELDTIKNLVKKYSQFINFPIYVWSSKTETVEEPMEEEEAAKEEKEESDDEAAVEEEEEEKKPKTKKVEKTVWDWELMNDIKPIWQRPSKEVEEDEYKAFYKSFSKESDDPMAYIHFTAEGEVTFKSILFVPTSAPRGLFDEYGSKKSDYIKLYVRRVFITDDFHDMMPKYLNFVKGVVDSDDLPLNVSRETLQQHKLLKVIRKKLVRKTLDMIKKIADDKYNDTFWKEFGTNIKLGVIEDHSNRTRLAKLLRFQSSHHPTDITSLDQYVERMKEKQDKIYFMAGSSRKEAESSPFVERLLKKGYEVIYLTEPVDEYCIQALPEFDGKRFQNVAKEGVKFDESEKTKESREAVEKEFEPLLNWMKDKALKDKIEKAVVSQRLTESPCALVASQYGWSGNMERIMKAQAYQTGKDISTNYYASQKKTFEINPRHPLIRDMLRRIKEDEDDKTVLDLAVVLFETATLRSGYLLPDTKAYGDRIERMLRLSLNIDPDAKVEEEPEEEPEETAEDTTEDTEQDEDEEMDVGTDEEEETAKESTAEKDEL

[3] = target: T3, HeLa cell extract proteins (Homo sapiens, UniProt P10515)
T3 construct: endogenous in cells; host or cells: HeLa cell extract
T3 sequence (P10515 87-647): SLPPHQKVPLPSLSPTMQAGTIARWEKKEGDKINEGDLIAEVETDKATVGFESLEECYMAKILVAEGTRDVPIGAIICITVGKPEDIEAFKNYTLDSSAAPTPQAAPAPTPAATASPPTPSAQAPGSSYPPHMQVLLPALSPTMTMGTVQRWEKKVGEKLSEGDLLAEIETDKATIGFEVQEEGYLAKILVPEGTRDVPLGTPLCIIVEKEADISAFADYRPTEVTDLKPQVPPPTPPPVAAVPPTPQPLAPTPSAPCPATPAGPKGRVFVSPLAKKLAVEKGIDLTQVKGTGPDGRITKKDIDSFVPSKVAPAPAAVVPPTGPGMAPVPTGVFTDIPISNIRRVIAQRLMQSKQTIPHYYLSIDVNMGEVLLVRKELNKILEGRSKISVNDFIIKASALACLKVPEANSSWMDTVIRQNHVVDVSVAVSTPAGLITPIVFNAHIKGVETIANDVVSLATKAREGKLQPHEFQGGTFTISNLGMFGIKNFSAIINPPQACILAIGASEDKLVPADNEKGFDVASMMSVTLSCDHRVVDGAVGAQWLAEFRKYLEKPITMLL

[4] = target: T4, HeLa cell extract proteins (Homo sapiens, UniProt Q9H2U1)
T4 construct: endogenous in cells; host or cells: HeLa cell extract
T4 sequence (Q9H2U1 1-1008): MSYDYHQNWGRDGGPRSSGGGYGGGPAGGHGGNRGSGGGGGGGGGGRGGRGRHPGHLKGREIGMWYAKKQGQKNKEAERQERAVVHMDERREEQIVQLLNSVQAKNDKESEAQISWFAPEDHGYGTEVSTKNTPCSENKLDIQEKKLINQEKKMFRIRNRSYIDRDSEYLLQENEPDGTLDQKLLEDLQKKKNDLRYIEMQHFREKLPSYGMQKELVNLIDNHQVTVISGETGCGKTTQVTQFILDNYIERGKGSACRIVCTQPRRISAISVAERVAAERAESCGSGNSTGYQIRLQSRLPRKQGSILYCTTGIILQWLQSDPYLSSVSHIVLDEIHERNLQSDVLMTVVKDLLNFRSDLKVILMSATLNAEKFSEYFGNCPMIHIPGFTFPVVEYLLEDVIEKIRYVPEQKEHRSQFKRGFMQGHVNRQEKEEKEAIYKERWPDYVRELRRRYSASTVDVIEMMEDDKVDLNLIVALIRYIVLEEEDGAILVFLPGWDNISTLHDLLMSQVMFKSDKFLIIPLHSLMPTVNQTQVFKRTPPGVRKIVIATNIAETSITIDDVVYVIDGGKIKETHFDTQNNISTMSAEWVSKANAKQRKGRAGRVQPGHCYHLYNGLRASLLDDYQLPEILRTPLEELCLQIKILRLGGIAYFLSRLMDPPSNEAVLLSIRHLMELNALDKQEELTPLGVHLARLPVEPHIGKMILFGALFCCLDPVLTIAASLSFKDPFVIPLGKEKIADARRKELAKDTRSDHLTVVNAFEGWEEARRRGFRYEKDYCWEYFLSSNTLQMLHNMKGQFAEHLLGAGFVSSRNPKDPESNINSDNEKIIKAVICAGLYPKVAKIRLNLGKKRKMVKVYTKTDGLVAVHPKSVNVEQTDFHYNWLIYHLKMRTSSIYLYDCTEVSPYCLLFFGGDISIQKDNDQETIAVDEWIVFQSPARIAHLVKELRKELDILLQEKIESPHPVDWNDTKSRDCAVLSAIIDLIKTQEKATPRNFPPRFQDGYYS

[5] = target: T5, HeLa cell extract proteins (Homo sapiens, UniProt P11021)
T5 construct: endogenous in cells; host or cells: HeLa cell extract
T5 sequence (P11021 19-654): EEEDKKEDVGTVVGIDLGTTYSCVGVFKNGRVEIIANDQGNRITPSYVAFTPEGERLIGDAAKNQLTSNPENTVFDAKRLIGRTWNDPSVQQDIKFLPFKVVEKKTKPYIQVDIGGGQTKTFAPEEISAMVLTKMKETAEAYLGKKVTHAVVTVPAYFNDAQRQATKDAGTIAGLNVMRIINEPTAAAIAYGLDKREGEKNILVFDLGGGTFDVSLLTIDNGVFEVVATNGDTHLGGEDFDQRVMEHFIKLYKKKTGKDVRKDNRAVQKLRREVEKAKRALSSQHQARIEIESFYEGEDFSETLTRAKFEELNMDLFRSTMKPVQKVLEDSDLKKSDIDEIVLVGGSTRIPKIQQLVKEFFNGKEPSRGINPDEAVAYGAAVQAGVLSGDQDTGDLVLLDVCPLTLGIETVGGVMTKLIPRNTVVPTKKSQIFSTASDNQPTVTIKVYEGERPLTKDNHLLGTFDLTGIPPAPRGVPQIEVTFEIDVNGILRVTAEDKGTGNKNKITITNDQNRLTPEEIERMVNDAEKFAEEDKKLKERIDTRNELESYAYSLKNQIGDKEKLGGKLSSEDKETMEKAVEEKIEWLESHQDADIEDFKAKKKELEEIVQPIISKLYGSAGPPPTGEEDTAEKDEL

[6] = target: T6, HeLa cell extract proteins (Homo sapiens, UniProt Q14203)
T6 construct: endogenous in cells; host or cells: HeLa cell extract
T6 sequence (Q14203 whole entry): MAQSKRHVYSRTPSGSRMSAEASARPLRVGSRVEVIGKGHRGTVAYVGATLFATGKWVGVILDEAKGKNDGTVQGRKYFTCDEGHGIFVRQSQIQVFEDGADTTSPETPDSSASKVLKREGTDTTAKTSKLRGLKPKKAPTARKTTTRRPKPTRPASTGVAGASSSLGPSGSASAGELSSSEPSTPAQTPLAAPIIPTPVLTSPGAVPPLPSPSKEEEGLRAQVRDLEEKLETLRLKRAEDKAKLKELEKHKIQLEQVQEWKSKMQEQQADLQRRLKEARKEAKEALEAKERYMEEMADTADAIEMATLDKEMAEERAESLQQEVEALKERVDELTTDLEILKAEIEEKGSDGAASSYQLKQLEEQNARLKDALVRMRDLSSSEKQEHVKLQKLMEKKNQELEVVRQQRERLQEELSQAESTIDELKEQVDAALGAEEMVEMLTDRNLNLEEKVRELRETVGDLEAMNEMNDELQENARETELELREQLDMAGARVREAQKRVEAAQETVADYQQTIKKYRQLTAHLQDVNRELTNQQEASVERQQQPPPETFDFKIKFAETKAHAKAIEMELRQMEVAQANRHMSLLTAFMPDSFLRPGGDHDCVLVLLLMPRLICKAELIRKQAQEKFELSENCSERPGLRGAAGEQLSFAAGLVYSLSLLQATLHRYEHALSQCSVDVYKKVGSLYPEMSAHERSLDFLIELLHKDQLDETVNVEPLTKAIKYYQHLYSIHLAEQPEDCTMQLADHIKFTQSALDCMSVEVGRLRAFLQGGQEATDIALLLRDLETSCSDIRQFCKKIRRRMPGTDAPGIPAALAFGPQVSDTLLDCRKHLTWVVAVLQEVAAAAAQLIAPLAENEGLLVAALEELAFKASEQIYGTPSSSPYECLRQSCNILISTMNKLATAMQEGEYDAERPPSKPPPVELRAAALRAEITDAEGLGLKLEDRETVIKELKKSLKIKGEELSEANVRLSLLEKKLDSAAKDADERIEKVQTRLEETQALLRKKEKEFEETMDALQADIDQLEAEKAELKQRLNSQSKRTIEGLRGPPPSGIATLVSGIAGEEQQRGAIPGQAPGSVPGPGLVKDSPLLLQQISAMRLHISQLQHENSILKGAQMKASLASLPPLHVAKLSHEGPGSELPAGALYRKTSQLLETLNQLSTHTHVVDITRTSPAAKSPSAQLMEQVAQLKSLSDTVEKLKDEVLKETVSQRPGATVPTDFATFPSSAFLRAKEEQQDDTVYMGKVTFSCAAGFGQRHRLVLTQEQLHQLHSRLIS

[7] = target: T7, HeLa cell extract proteins (Homo sapiens, UniProt P07737)
T7 construct: endogenous in cells; host or cells: HeLa cell extract

[8] = target: T8, HeLa cell extract proteins (Homo sapiens, UniProt Q3ZCQ8)
T8 construct: endogenous in cells; host or cells: HeLa cell extract
T8 sequence (Q3ZCQ8 45-353): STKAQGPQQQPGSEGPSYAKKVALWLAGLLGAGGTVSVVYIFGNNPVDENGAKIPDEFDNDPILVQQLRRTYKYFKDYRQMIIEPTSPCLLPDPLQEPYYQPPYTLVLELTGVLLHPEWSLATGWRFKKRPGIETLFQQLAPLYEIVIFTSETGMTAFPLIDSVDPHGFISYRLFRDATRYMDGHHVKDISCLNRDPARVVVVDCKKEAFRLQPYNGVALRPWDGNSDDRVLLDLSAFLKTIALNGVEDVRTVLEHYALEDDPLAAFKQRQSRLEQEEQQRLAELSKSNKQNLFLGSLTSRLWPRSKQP

[9] = target: T9, HeLa cell extract proteins (Homo sapiens, UniProt P20618)
T9 construct: endogenous in cells; host or cells: HeLa cell extract
T9 sequence (P20618 29-241): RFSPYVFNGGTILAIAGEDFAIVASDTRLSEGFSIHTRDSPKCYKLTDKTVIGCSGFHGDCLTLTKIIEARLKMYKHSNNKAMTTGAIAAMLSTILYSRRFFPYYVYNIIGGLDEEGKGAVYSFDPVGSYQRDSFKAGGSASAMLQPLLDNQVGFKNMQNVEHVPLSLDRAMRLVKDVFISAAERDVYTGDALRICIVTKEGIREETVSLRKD

[10] = target: T10, HeLa cell extract proteins (Homo sapiens, UniProt Q9BVS4)
T10 construct: endogenous in cells; host or cells: HeLa cell extract
T10 sequence (Q9BVS4 whole entry): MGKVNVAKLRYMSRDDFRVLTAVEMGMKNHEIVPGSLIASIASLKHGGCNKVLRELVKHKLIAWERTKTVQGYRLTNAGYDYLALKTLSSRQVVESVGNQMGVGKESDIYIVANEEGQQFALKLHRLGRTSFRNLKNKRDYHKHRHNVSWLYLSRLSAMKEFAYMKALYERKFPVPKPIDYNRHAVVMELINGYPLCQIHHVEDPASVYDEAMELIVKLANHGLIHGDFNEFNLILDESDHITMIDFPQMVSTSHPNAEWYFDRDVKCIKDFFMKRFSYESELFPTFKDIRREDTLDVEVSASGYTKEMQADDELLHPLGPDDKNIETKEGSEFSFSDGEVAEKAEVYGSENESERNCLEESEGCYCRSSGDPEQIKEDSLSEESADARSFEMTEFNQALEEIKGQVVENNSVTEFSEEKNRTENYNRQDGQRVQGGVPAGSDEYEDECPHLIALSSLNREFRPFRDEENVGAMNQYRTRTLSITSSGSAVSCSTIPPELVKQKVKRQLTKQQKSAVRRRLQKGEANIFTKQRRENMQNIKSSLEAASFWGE

[11] = target: T11, HeLa cell extract proteins (Homo sapiens, UniProt P07900)
T11 construct: endogenous in cells; host or cells: HeLa cell extract

[12] = target: T12, HeLa cell extract proteins (Homo sapiens, UniProt P24539)
T12 construct: endogenous in cells; host or cells: HeLa cell extract
T12 sequence (P24539 43-256): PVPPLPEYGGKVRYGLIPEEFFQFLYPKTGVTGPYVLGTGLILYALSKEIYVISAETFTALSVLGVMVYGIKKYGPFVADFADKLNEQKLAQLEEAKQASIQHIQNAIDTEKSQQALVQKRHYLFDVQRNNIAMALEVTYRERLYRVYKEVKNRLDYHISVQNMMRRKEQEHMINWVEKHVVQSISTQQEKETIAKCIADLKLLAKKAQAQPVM

[13] = target: T13, HeLa cell extract proteins (Homo sapiens, UniProt Q14974)
T13 construct: endogenous in cells; host or cells: HeLa cell extract

[14] = target: T14, HeLa cell extract proteins (Homo sapiens, UniProt P51648)
T14 construct: endogenous in cells; host or cells: HeLa cell extract
T14 sequence (P51648 whole entry): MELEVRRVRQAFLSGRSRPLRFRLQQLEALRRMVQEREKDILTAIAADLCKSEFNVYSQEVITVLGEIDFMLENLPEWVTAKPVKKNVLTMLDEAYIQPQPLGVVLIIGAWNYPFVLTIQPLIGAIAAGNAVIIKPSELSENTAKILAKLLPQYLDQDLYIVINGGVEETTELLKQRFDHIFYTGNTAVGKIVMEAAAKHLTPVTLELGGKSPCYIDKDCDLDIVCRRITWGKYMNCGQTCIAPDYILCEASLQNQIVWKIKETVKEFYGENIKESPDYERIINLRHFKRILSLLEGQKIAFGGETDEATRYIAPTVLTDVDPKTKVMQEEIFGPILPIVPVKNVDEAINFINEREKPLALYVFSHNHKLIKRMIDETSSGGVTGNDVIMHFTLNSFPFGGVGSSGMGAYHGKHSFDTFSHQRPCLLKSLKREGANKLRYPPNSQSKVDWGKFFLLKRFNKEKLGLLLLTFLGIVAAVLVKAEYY

[15] = HeLa, protein PFN1 (PROFILIN-1.)
[16] = HeLa, protein HSP90AA1 (HEAT SHOCK PROTEIN 90KDA ALPHA (CYTOSOLIC), CLASS A MEMBER 1 ISOFORM 1.)
[17] = HeLa, protein DHX36 (ISOFORM 1 OF PROBABLE ATP-DEPENDENT RNA HELICASE DHX36)
[18] = HeLa, protein DLAT (DIHYDROLIPOYLLYSINE-RESIDUE ACETYLTRANSFERASE COMPONENT OF PYRUVATE DEHYDROGENASE COMPLEX, MITOCHONDRIAL)

T1 sequence (Q13200 whole entry): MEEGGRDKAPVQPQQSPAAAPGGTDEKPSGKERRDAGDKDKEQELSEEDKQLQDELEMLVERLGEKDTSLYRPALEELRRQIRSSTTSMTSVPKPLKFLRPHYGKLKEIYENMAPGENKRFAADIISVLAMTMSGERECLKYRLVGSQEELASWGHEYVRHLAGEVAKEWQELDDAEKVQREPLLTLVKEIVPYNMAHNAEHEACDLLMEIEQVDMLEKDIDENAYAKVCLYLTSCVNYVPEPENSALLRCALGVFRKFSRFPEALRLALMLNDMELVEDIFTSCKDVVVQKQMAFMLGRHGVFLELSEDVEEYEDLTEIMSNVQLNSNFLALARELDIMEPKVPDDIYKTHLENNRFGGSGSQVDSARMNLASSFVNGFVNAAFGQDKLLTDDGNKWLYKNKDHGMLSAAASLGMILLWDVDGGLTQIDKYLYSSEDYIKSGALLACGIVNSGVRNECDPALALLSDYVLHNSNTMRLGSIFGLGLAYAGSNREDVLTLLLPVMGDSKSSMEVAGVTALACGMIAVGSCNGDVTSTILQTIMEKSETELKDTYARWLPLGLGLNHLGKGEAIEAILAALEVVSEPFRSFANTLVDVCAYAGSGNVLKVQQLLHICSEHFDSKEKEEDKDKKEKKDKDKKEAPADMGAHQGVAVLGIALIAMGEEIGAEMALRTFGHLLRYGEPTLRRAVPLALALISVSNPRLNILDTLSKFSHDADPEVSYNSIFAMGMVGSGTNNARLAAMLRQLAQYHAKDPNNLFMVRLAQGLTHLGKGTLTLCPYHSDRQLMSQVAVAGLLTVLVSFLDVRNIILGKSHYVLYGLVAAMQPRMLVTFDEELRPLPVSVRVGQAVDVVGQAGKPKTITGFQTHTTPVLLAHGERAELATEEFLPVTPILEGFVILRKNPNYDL

Row | SMILES | fold changes relative to vehicle control ([1]; protein PSMD2, HeLa) | fold changes relative to vehicle control ([3]; protein DLAT, HeLa) | fold changes relative to vehicle control ([4]; protein DHX36, HeLa) | fold changes relative to vehicle control ([5]; protein HSPA5, HeLa) | fold changes relative to vehicle control ([6]; protein DCTN1, HeLa) | fold changes relative to vehicle control [7, 15] [fold] | fold changes relative to vehicle control ([8]; captured protein TIMM50, HeLa) | fold changes relative to vehicle control ([9]; protein PSMB1, HeLa) | fold changes relative to vehicle control ([10]; captured protein RIOK2, HeLa) | fold changes relative to vehicle control [11, 16] [fold] | fold changes relative to vehicle control ([12]; HeLa, protein ATP5F1) | fold changes relative to vehicle control ([13]; protein KPNB1, HeLa) | fold changes relative to vehicle control ([14]; HeLa, protein ALDH3A2) | fold changes relative to vehicle control ([2]; HeLa, protein HSP90B1) | fold changes relative to vehicle control [4, 17] | fold changes relative to vehicle control ([5]; HeLa, captured protein HSPA5) | fold changes relative to vehicle control ([7]; HeLa, protein PFN1) | fold changes relative to vehicle control ([8]; HeLa, protein TIMM50) | fold changes relative to vehicle control ([9]; HeLa, protein PSMB1) | fold changes relative to vehicle control ([10]; HeLa, protein RIOK2) | also measured
1 | Nc1nc2cccc(-c3ccccc3)c2n1Cc1ccc(Cl)c(Cl)c1 [compound 3] | 1.01 | 1.1 | 0.98 | 0.99 | 1.1 | 1.03 | 0.99 | 0.92 | 0.95 | 0.94 | 0.88 | 0.97 | 1.05 | – | – | – | – | – | – | – | fold changes relative to vehicle control ([2]; HeLa, protein HSP90B1 (E[…].)): 0.91 fold
2 | Nc1nc2[nH]cc(CCc3ccc(C(=O)N[C@@H](CCC(=O)O)C(=O)O)cc3)c2c(=O)[nH]1 [PTX, pemetrexed] | – | – | – | – | – | – | – | – | – | – | – | – | – | – | – | – | – | – | – | – | fold changes relative to vehicle control [1]: 0.83; fold changes relative to vehicle control [2]: 1.14; fold changes relative to vehicle control [3]: 0.96; fold changes relative to vehicle control [4]: 0.99; fold changes relative to vehicle control [5]: 1.03; fold changes relative to vehicle control [6]: 1.17; fold changes relative to vehicle control [7]: 1.43; fold changes relative to vehicle control [8]: 0.87; fold changes relative to vehicle control [9]: 0.78; fold changes relative to vehicle control [10]: 0.33; fold changes relative to vehicle control [11]: 1.13; fold changes relative to vehicle control [12]: 1.13; fold changes relative to vehicle control [13]: 1.06; fold changes relative to vehicle control [14]: 0.93
3 | Nc1nc2c(c(=O)[nH]1)N(C=O)C(CNc1ccc(C(=O)N[C@@H](CCC(=O)O)C(=O)O)cc1)CN2 (some centres unmarked) [LEU, leucovorin] | 0.84 | – | – | – | 1.14 | – | – | – | – | – | – | – | 0.89 | 1.04 | 1.12 | 1.06 | 1.22 | 0.9 | 0.96 | 0.84 | fold changes relative to vehicle control ([3]; HeLa, protein DLAT ([…]-RESIDUE ACETYLT[…] OF PYRUVATE DEH[…], MITOCHONDRIAL)): 1.05; fold changes relative to vehicle control ([11]; HeLa, protein HSP90AA1): 1.06; fold changes relative to vehicle control ([12]; HeLa, captured protein ATP5F1): 1.15; fold changes relative to vehicle control ([13]; HeLa, protein KPNB1): 0.99
4 | CCCCCCOc1cccc(Cc2cnc(N)nc2N)c1 [compound 2] | 1.41 | 0.39 | 0.91 | 1.12 | 1.27 | 2.32 | 1.04 | 1.28 | 0.95 | 2.39 | 0.85 | 1.6 | 1.07 | – | – | – | – | – | – | – | fold changes relative to vehicle control ([2]; HeLa, protein HSP90B1 (ENDOPLASMIN PRECURSOR.)): 2.51 fold
5 | NCCOCCOCC(=O)Nc1nc2ncc(CNc3ccc(C(=O)NC(CCC(=O)O)C(=O)O)cc3)nc2c(=O)[nH]1 (centres unmarked) [compound 6] | 1.01 | – | – | – | 1.32 | – | – | – | – | – | – | – | 0.92 | 1.18 | 1.07 | 1 | 1.47 | 0.96 | 0.94 | 0.82 | fold changes relative to vehicle control [3, 18]: 0.92; fold changes relative to vehicle control ([11]; HeLa, protein HSP90AA1): 1.32; fold changes relative to vehicle control ([12]; HeLa, captured protein ATP5F1): 0.96; fold changes relative to vehicle control ([13]; HeLa, protein KPNB1): 1.13
6 | CCCCCCOc1ccc(Cc2cnc(N)nc2N)cc1 [compound 1] | 0.98 | 0.98 | 1.17 | 0.96 | 1.18 | 1.64 | 1 | 1.05 | 0.94 | 1.4 | 1.05 | 1.09 | 0.94 | – | – | – | – | – | – | – | fold changes relative to vehicle control ([2]; HeLa, protein HSP90B1 (E[…].)): 1.35 fold
7 | NCCCNc1ccc(C(=O)NC(CCC(=O)O)C(=O)O)cc1 (centres unmarked) [compound 7] | 0.99 | – | – | – | 1.03 | – | – | – | – | – | – | – | 0.89 | 0.89 | 1.03 | 1 | 1.21 | 0.97 | 0.86 | 0.87 | fold changes relative to vehicle control [3, 18]: 0.97; fold changes relative to vehicle control ([11]; HeLa, protein HSP90AA1): 0.92; fold changes relative to vehicle control ([12]; HeLa, captured protein ATP5F1): 1.05; fold changes relative to vehicle control ([13]; HeLa, protein KPNB1): 0.89
